Measured values published in patent publication US9145372B2, “Pyridazine derivatives, compositions and methods for treating cognitive impairment” (AGENEBIO, INC., priority 2010, dated 2015).

What was measured:
[1] = molecular target: T1, GABAA α5β3γ2 subtype receptor (Homo sapiens, UniProt P18507+P31644); test: GABA-gated Cl- current potentiation in Xenopus oocytes expressing GABAA α5β3γ2 (TEVC); format: cell-based
T1 construct: myc-His (vector-encoded); expressed in transfected cells; host or cells: Xenopus laevis oocytes injected with cDNAs
T1 sequence (P31644 32-462): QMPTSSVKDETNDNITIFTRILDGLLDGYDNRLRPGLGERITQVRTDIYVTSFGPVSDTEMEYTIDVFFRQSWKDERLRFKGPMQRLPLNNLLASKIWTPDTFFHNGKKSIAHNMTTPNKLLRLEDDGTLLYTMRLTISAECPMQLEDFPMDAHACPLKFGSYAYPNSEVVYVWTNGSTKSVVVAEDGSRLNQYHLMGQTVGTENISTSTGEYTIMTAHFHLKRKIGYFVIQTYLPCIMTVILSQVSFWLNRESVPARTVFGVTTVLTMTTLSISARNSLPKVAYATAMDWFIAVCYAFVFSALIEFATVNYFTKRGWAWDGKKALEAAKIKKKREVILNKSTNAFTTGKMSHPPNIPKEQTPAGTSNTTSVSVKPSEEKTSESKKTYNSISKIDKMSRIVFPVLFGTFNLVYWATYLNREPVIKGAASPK
T1 sequence (P28472 26-473 partner): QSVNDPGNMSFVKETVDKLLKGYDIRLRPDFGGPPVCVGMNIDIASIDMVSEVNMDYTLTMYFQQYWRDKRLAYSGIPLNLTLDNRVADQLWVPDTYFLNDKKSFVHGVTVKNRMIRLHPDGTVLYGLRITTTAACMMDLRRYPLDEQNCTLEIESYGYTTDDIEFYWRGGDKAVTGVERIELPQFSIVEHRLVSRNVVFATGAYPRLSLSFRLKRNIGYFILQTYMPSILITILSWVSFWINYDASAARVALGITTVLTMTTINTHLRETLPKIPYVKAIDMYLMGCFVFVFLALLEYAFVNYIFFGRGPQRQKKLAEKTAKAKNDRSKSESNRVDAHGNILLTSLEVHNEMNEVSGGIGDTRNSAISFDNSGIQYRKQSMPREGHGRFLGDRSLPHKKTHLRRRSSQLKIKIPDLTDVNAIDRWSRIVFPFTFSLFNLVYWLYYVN
T1 sequence (P18507 40-467 limits assumed): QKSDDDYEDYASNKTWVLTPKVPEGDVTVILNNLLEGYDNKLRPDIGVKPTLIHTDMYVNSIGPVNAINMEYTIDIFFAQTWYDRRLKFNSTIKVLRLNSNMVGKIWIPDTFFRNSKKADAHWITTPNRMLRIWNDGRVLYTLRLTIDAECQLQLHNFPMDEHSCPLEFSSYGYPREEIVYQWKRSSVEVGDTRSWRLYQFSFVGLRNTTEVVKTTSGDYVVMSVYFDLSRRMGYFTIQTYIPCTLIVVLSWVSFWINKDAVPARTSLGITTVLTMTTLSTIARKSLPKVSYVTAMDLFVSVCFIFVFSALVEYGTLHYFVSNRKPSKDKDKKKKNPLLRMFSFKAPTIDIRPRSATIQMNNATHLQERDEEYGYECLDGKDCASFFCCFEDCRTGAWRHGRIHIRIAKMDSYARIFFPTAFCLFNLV
From the text: (§1) Step 1: Establish Clones of GABAAR Subunits (α5, β3, γ2, α1, α2 and α3) and Prepare the Corresponding cRNAs: Human clones of GABAA-R α5, β3, γ2, α1, α2 and α3 subunits are obtained from commercial resources (e.g., OriGene, http://www.origene.com and Genescript, http://www.genescript.com). These clones are engineered into pRC, pCDM, pcDNA, and pBluescript KSM vector (for oocyte expression) or other equivalent expression vectors. Conventional transfection agents (e.g., FuGene, Lipofectamine 2000, or others) are used to transiently transfect host cells.
Adult female Xenopus laevis frogs were purchased from Nasco (Fort Atkinson, Wis.). […] All chemicals used were of reagent grade. […] Stock solutions of Diazepam, Flumazenil and compounds of the present invention were prepared in dimethyl sulfoxide (DMSO) and then diluted to an appropriate concentration with the extracellular solution just before use. To avoid adverse effects from DMSO exposure, the final concentration of DMSO was not higher than 0.3% (v/v).
Upon conclusion of compound testing and successful washout, a 1.0 μM Diazepam was tested and used for comparative activity on the two GABAAR subtypes.
Other concentrations of the test compound may also be tested following the same protocol.
Results are expressed as mean±SEM.

[2] = molecular target: T2, GABAA α1 receptors (α1β2γ2) (Homo sapiens, UniProt P14867+P18507); test: GABA-gated Cl- current in Xenopus oocytes expressing GABAA α1β2γ2 (TEVC), off-target activity; format: cell-based; conditions: concentration response 0.01-100 μM; FIGS. 1(A)-(D)
T2 construct: expressed in transfected cells; host or cells: Xenopus laevis oocytes injected with cDNAs
T2 sequence (P14867 28-456): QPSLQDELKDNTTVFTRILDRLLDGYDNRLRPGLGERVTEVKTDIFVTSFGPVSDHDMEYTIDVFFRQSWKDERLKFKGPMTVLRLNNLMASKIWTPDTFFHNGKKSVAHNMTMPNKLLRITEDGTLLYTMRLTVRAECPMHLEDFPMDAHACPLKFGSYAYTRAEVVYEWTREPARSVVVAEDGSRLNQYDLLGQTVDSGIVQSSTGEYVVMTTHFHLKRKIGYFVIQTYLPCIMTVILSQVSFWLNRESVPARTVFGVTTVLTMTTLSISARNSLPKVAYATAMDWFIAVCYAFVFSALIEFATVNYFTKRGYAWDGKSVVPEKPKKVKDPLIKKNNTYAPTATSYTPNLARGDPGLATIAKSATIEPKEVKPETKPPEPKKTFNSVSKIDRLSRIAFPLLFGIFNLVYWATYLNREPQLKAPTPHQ
T2 sequence (P47870 25-512 partner limits assumed): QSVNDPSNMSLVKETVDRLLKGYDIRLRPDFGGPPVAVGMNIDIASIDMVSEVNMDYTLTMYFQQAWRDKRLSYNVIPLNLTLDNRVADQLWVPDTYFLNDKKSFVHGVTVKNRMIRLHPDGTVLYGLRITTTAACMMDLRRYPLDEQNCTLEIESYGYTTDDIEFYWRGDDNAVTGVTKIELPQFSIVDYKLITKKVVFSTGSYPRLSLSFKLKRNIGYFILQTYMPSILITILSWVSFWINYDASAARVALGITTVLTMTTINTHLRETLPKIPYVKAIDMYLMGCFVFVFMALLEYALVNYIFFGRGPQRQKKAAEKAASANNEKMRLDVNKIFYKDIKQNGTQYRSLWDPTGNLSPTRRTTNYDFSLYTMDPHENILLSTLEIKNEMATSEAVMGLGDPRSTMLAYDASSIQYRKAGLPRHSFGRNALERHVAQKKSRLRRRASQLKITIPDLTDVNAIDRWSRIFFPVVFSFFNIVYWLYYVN
T2 sequence (P18507 40-467 limits assumed): T1 sequence (P18507 40-467 limits assumed)
From the text: as §1
Xenopus oocytes were isolated according to previously published procedures (see, e.g., Goldin et al. Methods Enzymol. 207:266-279 (1992)). The isolated Xenopus oocytes were injected with GABAAR cDNAs (1:1:1 ratio for a total volume of 1 ng of α1βγ2 or α5β3γ2) cloned into mammalian expression vectors. In particular, α1, β2, γ2 were cloned into pcDNA3.1. and α5 and β3 were cloned into pcDNA3.1 myc-His. Vectors were verified by partial sequencing (DNA Core Facility, University of Southern California, USA). After injection, oocytes were stored in incubation medium (Modified Barth's Saline (MBS) supplemented with 2 mM sodium pyruvate, 0.5 mM theophylline and 50 mg/L gentamycin), in petri dishes (VWR, San Dimas, Calif.). All solutions were sterilized by passage through 0.22 μM filters. […] Oocytes were used in experiments for up to 5 days after injection.
A high-throughput two-electrode voltage clamp (TEVC) system (OpusXpress A6000; Molecular Devices, Union City, Calif.), which automates the impalement of oocytes, fluid delivery and current recording from 8 oocytes in parallel, was used to carry out all electrophysiological recordings.
Xenopus Oocytes expressing GABAA-R α5β3γ2 or α1β2γ2 subtype, as prepared in section (A) above, were placed in 8 chambers of OpusXpress and perfused by MBS at 3 mL/min. Glass electrodes back-filled with 3 M KCl (0.5-3 megaohms) were used. Membrane potential of oocytes was voltage-clamped at −60 mV. Oocytes with holding current larger than 0.5 μA were discarded.
Data for each experimental point were obtained from 4 or more Xenopus oocytes and from at least two different frogs. The n refers to the number of Xenopus oocytes tested. Results are expressed as mean±SEM. […] Prism (GraphPAD Software, San Diego, Calif.) and Excel were used to perform curve fitting and statistical analyses.

positive allosteric modulation of GABA at GABAA α5 receptors ([1]; concentration response 0.01-100 μM, FIGS. 1(A)-(D)): strong positive allosteric modulation | activation at 1 µM ([1]; read-out: GABA α5 EC50 % potentiation): 12.3%
Compound: COC(=O)c1coc(-c2c(-c3ccccc3)cnnc2-c2cccc(OC)c2)n1 [Compound 29]
positive allosteric modulation at GABAA α1 receptors [2]: markedly reduced positive allosteric modulation
